The text below walks through data of patent US20090104159A1, “Vascular/Lymphatic Endothelial Cells” (priority 2005, published 2009).

For test [1], the system named is hMAPCs. Put plainly: Blocking of Patched and Notch pathways during hMAPC-EC differentiation. The class given is cell-based, human. To be noted: hMAPC-ECs, 14 days, exogenous VEGF present, cyclopamine 5 μM; for expression of arterial EC markers Hey-2, EphrinB1 and EphrinB2: L-685,458 1 μM. The procedure: For real time RT-PCR Syber Green and Taq Man® methods were used as described (Hong et al., 2004). GAPDH was used as a housekeeping control. […] Primers used for both RT-PCR and real time PCR are shown below in Table 2.
Blocking of Patched and Notch pathways was performed using cyclopamine Watkins et al., 2003) (Biomol) at 5 μM (added every 4-5 days with media change) and 1 μM of esecretase inhibitor L-685,458 (Bachem) (Dahlqvist et al., 2003), respectively. Exogenous VEGF was present in the media for the blocking experiments (no exogenous Shh or Dll-4).

The next test concerns rat MAPCs. Put plainly: Endothelial differentiation of rat MAPCs (qRT-PCR). The class given is cell-based. The following applies: Shh-antibody 0.5 micrograms/ml, cyclopamine 10 micromolar. The procedure:
(§1) Glass 4-well chambers with were coated with 1 μg/ml human fibronectin (Sigma, F0895) for about 30 minutes to about 1 hour in the 37° C. incubator. The cells were collected (with the use of 0.05% trypsin), counted and resuspended at 120K/ml in mouse MAPC culture media (see above). The fibronectin was taken off and the cells were seeded (1 ml per well) (=Day 0). The cells were then incubated at 37° C., 5% O2 overnight. […] The media was changed 50% (using differentiation media) on day 4 and from then on, media changed 50% every other day. For rat cells, the differentiation media contained 2% serum.

A further test concerns mouse MAPCs. Put plainly: Endothelial differentiation of mouse MAPCs (qRT-PCR). The test is classed as cell-based. The following applies: Shh-antibody 0.5 micrograms/ml, cyclopamine 10 micromolar. As for the experimental part:
as §1
A general note: In qPCR the cycle at which signal appears reflects the starting amount.

Another test deals with human MAPCs. To be noted: about 10 ng/mL LIF, till 25 cell doublings; cited from earlier work.
For the next test, the system named is murine MAPCs. To be noted: about 10 ng/mL LIF added to PDGF-BB and EGF; cited from earlier work.
Test [2] has as its system hMAPCs. Put plainly: Smooth muscle differentiation from hMAPCs. The test is classed as cell-based, human. To be noted: hMAPCs treated for 6 days, Q-RT-PCR and immunofluorescence. The procedure: Smooth muscle differentiation: hMAPCs were plated at 1×10^3 cells/cm^2 in growth media (58% low-glucose DMEM (Gibco BRL), 40% MCDB-201 (Sigma), 2% fetal calf serum (FCS) (Biochrom), ITS+1 (Sigma), 10^−8 M dexamethasone (Sigma), 10^−8 M ascorbic acid 2-phosphate (Sigma), 100 U penicillin, 1000 U streptomycin (Gibco BRL) and 10 ng/mL each of PDGF-BB and EGF during 24 hours and then media was exchanged with the same basal media, without FCS, EGF but now with 10 ng/ml TGF-β1. Media was changed every 4-5 days.

Another test concerns hMAPC. Put plainly: Lymphatic differentiation of hMAPC (real time PCR of Prox-1, Lyve-1, podoplanin). The class given is cell-based, human. To be noted: compared with VEGF165 alone. The procedure:
Arterial and/or venous differentiation was induced by addition of different combinations of the following growth factors: VEGF121 was used at 100 ng/ml and VEGF165 in different combinations with Delta-like 4 (Dll-4), Jagged-1, or Shh (all from R&DSystems) all at 100 ng/ml. Lymphatic differentiation was induced by addition of 100 ng/ml VEGF-C(R&DSystems) and 20 ng/ml bFGF (Sigma). Except for VEGF121, which was added alone, the other factors were added at the same time as VEGF165 in the various described combinations.
For real time RT-PCR Syber Green and Taq Man® methods were used as described (Hong et al., 2004). GAPDH was used as a housekeeping control. Results are presented as fold increase in comparison with the expression of the gene in undifferentiated cells or as percentage of positive control (cord blood derived venous and arterial ECs) (Jaffe et al., 1973; Neuhaus et al., 2003). Primers used for both RT-PCR and real time PCR are shown below in Table 2.

For `CC1=C2C[C@H]3[C@@H](CC=C4C[C@@H](O)CC[C@@]43C)[C@@H]2CC[C@]12O[C@@H]1C[C@H](C)CN[C@H]1[C@H]2C` [cyclopamine], in the test with hMAPCs [1], the “expression of the venous marker EphB4” value is listed as “slightly increased”; the “expression of arterial EC markers Hey-2, EphrinB1 and EphrinB2” value was “significantly decreased”. Moreover, the “arterial component in the cell cultures” value in the test with rat MAPCs is given as “decrease the arterial component”. In addition, the “arterial component in the cell cultures” value in the test with mouse MAPCs was “decrease the arterial component”.

In the case of `CC(C)C[C@H](NC(=O)[C@H](Cc1ccccc1)C[C@@H](O)[C@H](Cc1ccccc1)NC(=O)OC(C)(C)C)C(=O)N[C@@H](Cc1ccccc1)C(N)=O` [γ-secretase inhibitor, L-685,458], the “expression of arterial EC markers Hey-2, EphrinB1 and EphrinB2” value in the test on hMAPCs [1] was “even more pronounced attenuation”.

With “LIF: leukemia inhibitory factor, culture supplement”, the short-term cell growth entry in the test with human MAPCs is reported as “did not affect short-term cell growth”. Further, the cell growth entry in the test on murine MAPCs was “significantly enhanced cell growth”.

Take “TGF-β1: growth factor, 10 ng/ml, used for smooth muscle differentiation”: the “expression of SMC markers” value in the test on hMAPCs [2] is recorded as “upregulated expression of SMC markers”.

B1: VEGF-C: VEGF family growth factor (R&DSystems) used for lymphatic differentiation (protein, UniProt P49767 112-227, looked up)
Vascular endothelial growth …: AHYNTEILKSIDNEWRKTQCMPREVCIDVGKEFGVATNTFFKPPCVSVYRCGGCCNSEGLQCMNTSTSYLSKTLFEITVPLSQGPKPVTISFANHTSCRCMSKLDVYRQVHSIIRR
Regarding B1, the “expression of lymphatic genes Prox-1, Lyve-1 and podoplanin” value in the test on hMAPC is “does not enhance expression of these genes more than VEGF165 alone”.
